Values belong to the molecule of their own block, whether it stands above or below them.
Tests used:
NHE9* [1] = target: T1, NHE9* (Equus caballus, UniProt F7B113, K85Q/K105Q/K107Q); assay: GFP-based thermal shift (FSEC-TS); assay type: binding; conditions: 1% DDM, 1% octyl glucoside, 10 min heating; lipid 1 mg/ml in the screen; TM2-TM3 loop mutant
T1 construct: gene SLC9A9; residues 8-575 (8-574 elsewhere) of 644, C-terminal tail truncated; GFP-TwinStrep-His8 fusion kept for thermal shift; S. cerevisiae FGY217; purified homodimer
T1 sequence (F7B113 8-575 K85Q/K105Q/K107Q): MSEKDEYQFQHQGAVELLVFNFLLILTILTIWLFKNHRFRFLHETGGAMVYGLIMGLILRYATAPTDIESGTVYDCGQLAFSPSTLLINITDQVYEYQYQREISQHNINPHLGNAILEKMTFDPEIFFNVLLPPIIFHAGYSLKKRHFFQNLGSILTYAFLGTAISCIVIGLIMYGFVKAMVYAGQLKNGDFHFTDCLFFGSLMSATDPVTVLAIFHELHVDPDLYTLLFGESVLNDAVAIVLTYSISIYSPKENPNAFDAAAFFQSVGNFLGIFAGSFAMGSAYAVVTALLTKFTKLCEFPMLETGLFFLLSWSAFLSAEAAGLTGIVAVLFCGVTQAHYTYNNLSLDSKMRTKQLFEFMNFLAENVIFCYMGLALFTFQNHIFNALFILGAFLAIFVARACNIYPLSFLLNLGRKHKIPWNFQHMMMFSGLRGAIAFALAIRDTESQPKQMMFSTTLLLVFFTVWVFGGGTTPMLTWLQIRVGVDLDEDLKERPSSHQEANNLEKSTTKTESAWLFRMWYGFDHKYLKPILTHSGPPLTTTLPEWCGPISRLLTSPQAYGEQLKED

NHE9* [2] = target: T2, NHE9* (Equus caballus, UniProt F7B113); assay: GFP-based thermal shift (FSEC-TS); assay type: binding; conditions: 1% DDM, 1% octyl glucoside, 10 min heating; lipid 1 mg/ml in the screen
T2 construct: gene SLC9A9; residues 8-575 (8-574 elsewhere) of 644, C-terminal tail truncated; GFP-TwinStrep-His8 fusion kept for thermal shift; S. cerevisiae FGY217; purified homodimer
T2 sequence (F7B113 8-575): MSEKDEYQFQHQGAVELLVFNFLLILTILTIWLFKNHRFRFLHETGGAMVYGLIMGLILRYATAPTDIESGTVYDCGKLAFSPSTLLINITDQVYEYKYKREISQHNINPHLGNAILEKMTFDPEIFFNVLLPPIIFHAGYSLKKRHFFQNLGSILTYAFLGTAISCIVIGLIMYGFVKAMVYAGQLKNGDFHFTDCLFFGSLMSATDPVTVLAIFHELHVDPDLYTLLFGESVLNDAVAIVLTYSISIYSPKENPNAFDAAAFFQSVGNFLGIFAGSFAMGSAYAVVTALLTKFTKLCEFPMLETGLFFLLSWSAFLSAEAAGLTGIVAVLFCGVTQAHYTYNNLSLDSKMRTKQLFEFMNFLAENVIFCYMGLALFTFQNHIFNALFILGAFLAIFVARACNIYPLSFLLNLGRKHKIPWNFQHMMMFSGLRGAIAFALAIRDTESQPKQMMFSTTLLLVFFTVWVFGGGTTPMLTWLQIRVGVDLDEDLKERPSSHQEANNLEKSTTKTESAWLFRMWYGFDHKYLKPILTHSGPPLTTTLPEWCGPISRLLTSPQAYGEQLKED
Excerpt: GFP-based thermal shift (FSEC-TS) on NHE9* | In the presence of either PIP2 or PIP3, the average melting temperature (ΔT m)

NHE9 ΔCTD = target: T3, NHE9 ΔCTD (Equus caballus, UniProt F7B113); assay: GFP-based thermal shift (FSEC-TS); assay type: binding; conditions: 1% DDM, 1% octyl glucoside, 10 min heating; lipid 1 mg/ml in the screen
T3 construct: gene SLC9A9; residues 8-481 of 644, whole C-terminal regulatory domain removed; GFP-TwinStrep-His8 fusion for thermal shift; S. cerevisiae FGY217; purified homodimer
T3 sequence (F7B113 8-481): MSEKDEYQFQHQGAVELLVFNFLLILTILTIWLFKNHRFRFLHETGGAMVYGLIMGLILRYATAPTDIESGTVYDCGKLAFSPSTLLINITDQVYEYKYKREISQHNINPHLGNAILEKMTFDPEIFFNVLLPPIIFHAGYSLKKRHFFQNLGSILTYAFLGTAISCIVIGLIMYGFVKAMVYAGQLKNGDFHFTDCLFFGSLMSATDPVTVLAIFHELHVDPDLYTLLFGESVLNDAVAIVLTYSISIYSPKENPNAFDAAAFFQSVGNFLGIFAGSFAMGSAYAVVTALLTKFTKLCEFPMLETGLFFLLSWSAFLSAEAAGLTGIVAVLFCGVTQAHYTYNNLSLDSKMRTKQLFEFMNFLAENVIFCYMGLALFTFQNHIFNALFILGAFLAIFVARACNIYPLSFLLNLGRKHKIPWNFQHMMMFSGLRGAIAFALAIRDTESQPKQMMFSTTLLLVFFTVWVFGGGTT

[3] = target: horse NHE9* (residues 8-575 out of 644), TEV-cleaved (Equus caballus (horse)); assay: native MS; 100 mM ammonium acetate pH 7.0, 0.02% (w/v) DDM; NHE9* purified with or without added brain lipids
[4] = target: the molecule itself; assay: cryo-EM structure; purified protein in LMNG/CHS, 20 mM Tris-HCl pH 7.5, 150 mM NaCl; brain lipids added during purification; no symmetry imposed (C1)

ΔTm (NHE9* [2]): 9 °C
Molecule: CCCCCCCC(=O)OC[C@H](COP(=O)(O)O[C@@H]1[C@H](O)[C@H](O)[C@@H](OP(=O)(O)O)[C@H](OP(=O)(O)O)[C@H]1O)OC(=O)CCCCCCC [PIP2, phosphatidylinositol bis‐4,5‐phosphate,1,2‐dioctanoyl]
ΔTm (NHE9* [1]): a triple lysine‐to‐glutamine loop mutant markedly reduced PIP2‐mediated stabilization | ΔTm (NHE9 ΔCTD): the ΔCTD construct was also analysed, yet additional stabilization upon PIP2 addition was still observed

ΔTm (NHE9* [2]): 9 °C
Molecule: CCCCCCCCCCCCCCCC(=O)OC[C@H](COP(=O)(O)O[C@H]1[C@H](O)[C@@H](OP(=O)(O)O)[C@H](OP(=O)(O)O)[C@@H](OP(=O)(O)O)[C@H]1O)OC(=O)CCCCCCCCCCCCCCC [PIP3, phosphatidylinositol tris‐3,4,5‐phosphate,1,2‐dipalmitoyl]

stoichiometry N [3]: 2
Molecule: horse NHE9* (residues 8-575 out of 644), TEV-cleaved (domain or fragment)

B1: horse NHE9 ΔCTD (residues 8-481 out of 644) (domain or fragment, Equus caballus (horse), UniProt F7B113 8-481, looked up)
chain: MSEKDEYQFQHQGAVELLVFNFLLILTILTIWLFKNHRFRFLHETGGAMVYGLIMGLILRYATAPTDIESGTVYDCGKLAFSPSTLLINITDQVYEYKYKREISQHNINPHLGNAILEKMTFDPEIFFNVLLPPIIFHAGYSLKKRHFFQNLGSILTYAFLGTAISCIVIGLIMYGFVKAMVYAGQLKNGDFHFTDCLFFGSLMSATDPVTVLAIFHELHVDPDLYTLLFGESVLNDAVAIVLTYSISIYSPKENPNAFDAAAFFQSVGNFLGIFAGSFAMGSAYAVVTALLTKFTKLCEFPMLETGLFFLLSWSAFLSAEAAGLTGIVAVLFCGVTQAHYTYNNLSLDSKMRTKQLFEFMNFLAENVIFCYMGLALFTFQNHIFNALFILGAFLAIFVARACNIYPLSFLLNLGRKHKIPWNFQHMMMFSGLRGAIAFALAIRDTESQPKQMMFSTTLLLVFFTVWVFGGGTT
notes: horse (Equus caballus) NHE9 (SLC9A9), residues 8-481 out of 644, lacking the entire C-terminal regulatory domain; C-terminal residues left after TEV cleavage are probably as in NHE9* (surmise); also called ΔCTD construct; source: S. cerevisiae FGY217, purified (Strep-Tactin XT, TEV digestion, SEC); not shown: GFP, C-terminal, cleaved; TwinStrep, C-terminal, cleaved; His8, C-terminal, cleaved
binding result [4]: binds

From publication PMC7737618, “Structure and elevator mechanism of the mammalian sodium/proton exchanger NHE9” (The EMBO Journal, 2020)
